Test results taken from patent publication US20240059703A1 (AMGEN INC., priority 2021, published 2024).

Tests used:
[1] = target: KRAS G12C (Homo sapiens (Human), UniProt P01116, C118A/G12C); test: 2 h coupled exchange assay; assay type: biochemical; conditions: Avg 2 h Coupled exchange IC50, 2 h compound pre-incubation
Protocol: The term “2 h coupled exchange assay” or “20 h coupled exchange assay” as used herein refers to the assay described in the Section entitled “BIOLOGICAL EVALUATION.”

[2] = tested on: A549 (human lung carcinoma) cells; test: Cell Viability Assay (CellTiter-Glo), A549; assay type: cell-based; conditions: Homo sapiens, A549, 72 h
Procedure, shortened: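 After a 72 h exposure to serial compound dilutions at 37° C, luminescent ATP content was measured with CellTiter-Glo. The cells were A549 or MIA PaCa-2, seeded at 1.67E+04 cells/mL in RPMI 1640 with 10% serum. Signals were normalized to DMSO controls and IC50 fitted with a 4-parameter logistic model.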

[3] = tested on: MIA PaCa-2 (human pancreatic carcinoma) cells; test: Cell Viability Assay (CellTiter-Glo), MIA PaCa-2; assay type: cell-based; conditions: Homo sapiens, MIA PaCa-2, 72 h
Protocol: Serially-diluted compound or DMSO was added to the cells, and plates were incubated at 37° C., 5% CO2 for 72 h. Cell viability was measured using a CellTiter-Glo® Luminescent Cell Viability Assay kit (Promega) according to the manufacturer's protocol. The luminescence signal of treated samples was normalized to DMSO control, and data were analyzed using a 4-parameter logistic model to calculate IC50 values.

Sequence of KRAS G12C (P01116 other isoform, or with tags, fused parts or gaps G12C/C118A): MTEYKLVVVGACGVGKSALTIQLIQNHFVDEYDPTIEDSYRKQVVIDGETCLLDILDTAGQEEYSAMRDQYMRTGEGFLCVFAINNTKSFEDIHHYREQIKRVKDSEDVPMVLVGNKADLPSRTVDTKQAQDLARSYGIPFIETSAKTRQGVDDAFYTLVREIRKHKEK

SMILES	IC50 [1]	IC50 [2]	IC50 [3]
C=CC(=O)N1CC2(CCN(c3nc4c(c(-c5ccccc5F)c3C#N)CCN(c3scnc3C)[C@H]4C)C2)C1 [Example 21-6, (8S)-4-(2-fluorophenyl)-8-methyl-7-(4-methyl-1,3-thiazol-5-yl)-2-(2-(2-propenoyl)-2,6-diazaspiro[3.4]octan-6-yl)-5,6,7,8-tetrahydro-1,7-naphthyridine-3-carbonitrile]	0.93 µM	11.2 µM	4.57 µM
C=CC(=O)N1CC2(CCN(c3nc4c(c(-c5cc(O)ccc5F)c3C#N)CC3CCC4N3C(C)C)C2)C1 (stereo not drawn) [Example 21-8]	0.933 µM	> 25 µM	5.56 µM
C=CC(=O)N1CC2(CCN(c3nc4c(c(-c5cc(O)ccc5Cl)c3C#N)CN(Cc3scnc3C)C4)C2)C1 [Example 21-12, 4-(2-chloro-5-hydroxyphenyl)-6-((4-methyl-1,3-thiazol-5-yl)methyl)-2-(2-(2-propenoyl)-2,6-diazaspiro[3.4]octan-6-yl)-6,7-dihydro-5H-pyrrolo[3,4-b]pyridine-3-carbonitrile]	0.393 µM	> 25 µM	5.41 µM
C=CC(=O)N1CC2(CCN(c3nc4c(c(-c5cc(O)ccc5Cl)c3C#N)CCN(c3scnc3C)C4)C2)C1 [Example 21-13, 4-(2-chloro-5-hydroxyphenyl)-7-(4-methyl-1,3-thiazol-5-yl)-2-(2-(2-propenoyl)-2,6-diazaspiro[3.4]octan-6-yl)-5,6,7,8-tetrahydro-1,7-naphthyridine-3-carbonitrile]	0.014 µM	> 5 µM	1.07 µM
C=CC(=O)N1CC2(CCN(c3nc4c(c(-c5cc(O)ccc5F)c3C#N)CCN(C(C)C)C4)C2)C1 [Example 21-15, 4-(2-fluoro-5-hydroxyphenyl)-7-(2-propanyl)-2-(2-(2-propenoyl)-2,6-diazaspiro[3.4]octan-6-yl)-5,6,7,8-tetrahydro-1,7-naphthyridine-3-carbonitrile]	0.22 µM	> 5 µM	> 5 µM
C=CC(=O)N1CC2(CCN(c3nc4c(c(-c5ccc(F)cc5F)c3C#N)CCN(c3scnc3C)C4)[C@H]2C)C1 [Example 21-16, 4-(2,4-difluorophenyl)-2-((5S)-5-methyl-2-(2-propenoyl)-2,6-diazaspiro[3.4]octan-6-yl)-7-(4-methyl-1,3-thiazol-5-yl)-5,6,7,8-tetrahydro-1,7-naphthyridine-3-carbonitrile]	0.108 µM	5.11 µM	0.931 µM
C=CC(=O)N1CC2(CCN(c3nc4c(c(-c5ccc(F)cc5F)c3C#N)CCN(c3scnc3C)C4)[C@@H]2C)C1 [Example 21-17, 4-(2,4-difluorophenyl)-2-((5R)-5-methyl-2-(2-propenoyl)-2,6-diazaspiro[3.4]octan-6-yl)-7-(4-methyl-1,3-thiazol-5-yl)-5,6,7,8-tetrahydro-1,7-naphthyridine-3-carbonitrile]	0.136 µM	9.84 µM	0.337 µM
C=CC(=O)N1CC2(CCN(c3nc4c(c(-c5ccccc5F)c3C#N)CCN(c3ccncc3C)C4)C2)C1 [Example 21-21, 4-(2-fluorophenyl)-7-(3-methyl-4-pyridinyl)-2-(2-(2-propenoyl)-2,6-diazaspiro[3.4]octan-6-yl)-5,6,7,8-tetrahydro-1,7-naphthyridine-3-carbonitrile]	0.442 µM	> 5 µM	> 5 µM
C=CC(=O)N1CC2(CCN(c3nc4c(c(-c5cc(O)ccc5Cl)c3C#N)CCN(C[C@@H]3CCCN3C)C4)C2)C1 [Example 21-28, 4-(2-chloro-5-hydroxyphenyl)-7-(((2S)-1-methyl-2-pyrrolidinyl)methyl)-2-(2-(2-propenoyl)-2,6-diazaspiro[3.4]octan-6-yl)-5,6,7,8-tetrahydro-1,7-naphthyridine-3-carbonitrile]	0.473 µM	> 25 µM	0.314 µM
C=CC(=O)N1CC2(CCN(c3nc4c(c(-c5ccccc5F)c3C#N)CCN(CC3CCCN3C)C4)C2)C1 [Example 21-29, 4-(2-fluorophenyl)-7-(((2R)-1-methyl-2-pyrrolidinyl)methyl)-2-(2-(2-propenoyl)-2,6-diazaspiro[3.4]octan-6-yl)-5,6,7,8-tetrahydro-1,7-naphthyridine-3-carbonitrile 4-(2-fluorophenyl)-7-(((2S)-1-methyl-2-pyrrolidinyl)methyl)-2-(2-(2-propenoyl)-2,6-diazaspiro[3.4]octan-6-yl)-5,6,7,8-tetrahydro-1,7-naphthyridine-3-carbonitrile]	0.822 µM	> 25 µM	4.41 µM

The next lines start with the values.

IC50 [1]	IC50 [2]	IC50 [3]	SMILES
0.094 µM	6.02 µM	0.749 µM	C=CC(=O)N1CC2(CCN(c3nc4c(c(-c5ccc(F)cc5F)c3C#N)CCN(c3ccc(OC)cc3)C4)C2)C1 [Example 21-7, 4-(2,4-difluorophenyl)-7-(4-methoxyphenyl)-2-(2-(2-propenoyl)-2,6-diazaspiro[3.4]octan-6-yl)-5,6,7,8-tetrahydro-1,7-naphthyridine-3-carbonitrile]
0.264 µM	> 5 µM	> 5 µM	C=CC(=O)N1CC2(CCN(c3nc4c(c(-c5cc(O)ccc5Cl)c3C#N)CCN(C(C)C)C4)C2)C1 [Example 21-9, 4-(2-chloro-5-hydroxyphenyl)-7-(2-propanyl)-2-(2-(2-propenoyl)-2,6-diazaspiro[3.4]octan-6-yl)-5,6,7,8-tetrahydro-1,7-naphthyridine-3-carbonitrile]
0.189 µM	> 5 µM	0.716 µM	C=CC(=O)N1CC2(CCN(c3nc4c(c(-c5ncccc5F)c3C#N)CCN(c3scnc3C)C4)C2)C1 [Example 21-10, 4-(3-fluoro-2-pyridinyl)-7-(4-methyl-1,3-thiazol-5-yl)-2-(2-(2-propenoyl)-2,6-diazaspiro[3.4]octan-6-yl)-5,6,7,8-tetrahydro-1,7-naphthyridine-3-carbonitrile]
0.033 µM	4.41 µM	0.633 µM	C=CC(=O)N1CC2(CCN(c3nc4c(c(-c5ccccc5Cl)c3C#N)CCN(c3scnc3C)C4)C2)C1 [Example 21-11]
0.035 µM	> 5 µM	> 5 µM	C=CC(=O)N1CC2(CCN(c3nc4c(c(-c5cccc(F)c5O)c3C#N)CCN(c3scnc3C)C4)C2)C1 [Example 21-14, 4-(3-fluoro-2-hydroxyphenyl)-7-(4-methyl-1,3-thiazol-5-yl)-2-(2-(2-propenoyl)-2,6-diazaspiro[3.4]octan-6-yl)-5,6,7,8-tetrahydro-1,7-naphthyridine-3-carbonitrile]
0.853 µM	10.2 µM	2.82 µM	C=CC(=O)N1CC2(CCN(c3nc4c(c(-c5ccc(F)cc5F)c3C#N)CCN(C(C)C)C4)[C@H]2C)C1 [Example 21-18, 4-(2,4-difluorophenyl)-2-((5S)-5-methyl-2-(2-propenoyl)-2,6-diazaspiro[3.4]octan-6-yl)-7-(2-propanyl)-5,6,7,8-tetrahydro-1,7-naphthyridine-3-carbonitrile]
0.035 µM	> 5 µM	1.17 µM	C=CC(=O)N1CC2(CCN(c3nc4c(c(-c5cc(O)ccc5F)c3C#N)CCN(c3scnc3C)C4)C2)C1 [Example 21-19, 4-(2-fluoro-5-hydroxyphenyl)-7-(4-methyl-1,3-thiazol-5-yl)-2-(2-(2-propenoyl)-2.6-diazaspiro[3.4]octan-6-yl)-5,6,7,8-tetrahydro-1,7-naphthyridine-3-carbonitrile]
0.973 µM	9.88 µM	5.25 µM	C=CC(=O)N1CC2(CCN(c3nc4c(c(-c5ccccc5F)c3C#N)CCN(c3ncc(C)s3)C4)C2)C1 [Example 21-20, 4-(2-fluorophenyl)-7-(5-methyl-1,3-thiazol-2-yl)-2-(2-(2-propenoyl)-2.6-diazaspiro[3.4]octan-6-yl)-5,6,7,8-tetrahydro-1,7-naphthyridine-3-carbonitrile]
0.334 µM	18.4 µM	0.337 µM	C=CC(=O)N1CC2(CCN(c3nc4c(c(-c5cc(O)ccc5Cl)c3C#N)C3CCC4N(C(C)C)C3)C2)C1 (stereo not drawn) [Example 21-26]
0.918 µM	16.5 µM	2.99 µM	C=CC(=O)N1CC2(CCN(c3nc4c(c(-c5ccc(F)cc5F)c3C#N)CCN(C(C)C)C4)C2)C1 [Example 21-27, 4-(2,4-difluorophenyl)-7-(2-propanyl)-2-(2-(2-propenoyl)-2,6-diazaspiro[3.4]octan-6-yl)-5,6,7,8-tetrahydro-1,7-naphthyridine-3-carbonitrile]
0.211 µM	15.4 µM	2.09 µM	C=CC(=O)N1CC2(CCN(c3nc4c(c(-c5ccccc5F)c3C#N)CCN(C3CCCN(C)C3)C4)C2)C1 [Example 21-30, 4-(2-fluorophenyl)-7-((3R)-1-methyl-3-piperidinyl)-2-(2-(2-propenoyl)-2,6-diazaspiro[3.4]octan-6-yl)-5,6,7,8-tetrahydro-1,7-naphthyridine-3-carbonitrile 4-(2-fluorophenyl)-7-((3S)-1-methyl-3-piperidinyl)-2-(2-(2-propenoyl)-2,6-diazaspiro[3.4]octan-6-yl)-5,6,7,8-tetrahydro-1,7-naphthyridine-3-carbonitrile]
